In patent publication US5563158A, “Aromatic compounds containing basic and acidic termini useful as fibrinogen receptor antagonists” (The Dupont Merck Pharmaceutical Company, priority 1994, dated 1996):
Where a name gives a salt, the structure may show the parent alone.

Tested on: platelet-rich plasma (PRP) platelets
Test: Platelet aggregation assay (agonist-induced aggregation in human platelet-rich plasma, aggregometer)
Format: cell-based
Conditions: inhibition of agonist-induced platelet aggregation, test compounds added prior to activation of the platelets
Experimental: Platelet Aggregation Assay:
Venous blood was obtained from the arm of a healthy human donor who was drug-free and aspirin-free for at least two weeks prior to blood collection. Blood was collected into 10 mL citrated Vacutainer tubes. The blood was centrifuged for 15 minutes at 150×g at room temperature, and platelet-rich plasma (PRP) was removed. The remaining blood was centrifuged for 15 minutes at 1500×g at room temperature, and platelet-poor plasma (PPP) was removed. Samples were assayed on a aggregometer (PAP-4 Platelet Aggregation Profiler), using PPP as the blank (100% transmittance). 200 μL of PRP was added to each micro test tube, and transmittance was set to 0%. 20 μL of various agonists (ADP, collagen, arachidonate, epinephrine, thrombin) were added to each tube, and the aggregation profiles were plotted (% transmittance versus time). The results are expressed as % inhibition of agonist-induced platelet aggregation. For the IC50 evaluation, the test compounds were added at various concentrations prior to the activation of the platelets.

Row | SMILES | IC50 [µM]
1 | CC(CC(=O)O)NC(=O)c1cccc(COc2ccc(C(=N)N)cc2)c1 (racemic) [Example 85, N-(3-(4-Amidinophenyloxymethyl)benzoyl)-DL-3-aminobutyric acid TFA salt] | < 10
2 | CC(CC(=O)O)NC(=O)c1cccc(OCc2ccc(C(=N)N)cc2)c1 (racemic) [Example 91, N-(3-(4-amidinobenzyloxy)benzoyl)-DL-3-aminobutyric acid TFA salt] | < 10
3 | N=C(N)c1ccc(COc2cccc(C(=O)NC(CC(=O)O)C(F)(F)F)c2)cc1 (racemic) [Example 92, N-(3-(4-amidinobenzyloxy)benzoyl)-DL-3-amino-4,4,4-trifluorobutyric acid TFA salt] | 51 to 100
4 | CCCCOC(=O)N[C@@H](CNC(=O)c1cccc(COc2ccc(C(=N)N)cc2)c1)C(=O)OC [Example 3a, Methyl N-^2-1-butyloxycarbonyl-N^3-(3-(4-amidinophenyloxymethyl)benzoyl)-L-2,3-diaminopropionate TFA salt] | < 10
5 | COC(=O)[C@H](CNC(=O)c1cccc(COc2ccc(C(=N)N)cc2)c1)NC(=O)CCc1ccccc1 [Example 6a, Methyl N^2-(3-phenylpropionyl)-N^3-(3-(4-amidinophenyloxymethyl)benzoyl)-L-2,3-diaminopropionate TFA salt] | < 10
6 | CCCCS(=O)(=O)N[C@@H](CNC(=O)c1cccc(COc2ccc(C(=N)N)cc2)c1)C(=O)O [Example 14, N^2-1-butanesulfonyl-N^3-(3-(4-amidinophenyloxymethyl)benzoyl)-2,3-diaminopropionic acid TFA salt] | < 10
7 | Cc1ccc(S(=O)(=O)N[C@@H](CNC(=O)c2cccc(COc3ccc(C(=N)N)cc3)c2)C(=O)O)cc1 [Example 16, N^2-p-toluenesulfonyl-N^3-(3-(4-amidinophenyloxymethyl)benzoyl)-L-2,3-diaminopropionic acid TFA salt] | < 10
8 | COC(=O)[C@H](CNC(=O)c1cccc(COc2ccc(C(=N)N)cc2)c1)NS(=O)(=O)c1ccc(C)cc1 [Example 16a, Methyl N^2-p-toluenesulfonyl-N^3-(3-(4-amidinophenyloxymethyl)benzoyl)-L-2,3-diaminopropionate TFA salt] | 10 to 50
9 | COC(=O)[C@H](CNC(=O)c1cccc(COc2ccc(C(=N)N)cc2)c1)NC(=O)c1ccccn1 [Example 18a] | < 10
10 | COC(=O)[C@H](CNC(=O)c1cccc(COc2ccc(C(=N)N)cc2)c1)NC(=O)c1cccnc1 [Example 19a, Methyl-N^2-nicotinoyl-N^3-[3-(4-amidinophenyloxymethyl)benzoyl]-L-2,3-diaminopropionate, TFA salt] | < 10
11 | COC(=O)[C@H](CNC(=O)c1cccc(COc2ccc(C(=N)N)cc2)c1)NC(=O)c1ccncc1 [Example 20a] | < 10
12 | N=C(N)c1ccc(OCc2cccc(C(=O)NCCC(=O)O)c2)cc1 [Example 27, N-(3-(4-amidinophenyloxymethyl)benzoyl)-3-aminopropionic acid TFA salt] | < 10
13 | N=C(N)c1ccc(OCc2cccc(C(=O)NC[C@H](NC(=O)OCc3ccccc3)C(=O)O)c2)cc1 [Example 53, N^2 -Cbz-N^3-(3-(4-amidinophenyloxymethyl)benzoyl)-L-2,3-diaminopropionic acid TFA salt] | < 10
14 | O=C(O)CCNC(=O)c1cccc(OCCCC2CCNCC2)c1 [Example 84a] | < 10
15 | O=C(O)CCNC(=O)c1ccc(OCCCC2CCNCC2)cc1 [Example 84b, TFA salt] | < 10
16 | CCOC(=O)C(CNC(=O)c1cccc(COc2ccc(C(=N)N)cc2)c1)NC(=O)OCc1ccccc1 (stereo not shown) [Example 110] | 10 to 50
17 | COC(=O)[C@H](CNC(=O)c1cccc(COc2ccc(C(=N)N)cc2)c1)NC(=O)Cc1cccnc1 [Example 119a, Methyl-N^2-3-pyridylacetoyl-N^3-[3-(4-amidinophenyloxymethyl)benzoyl]-L-2,3-diaminopropionate] | < 10
18 | CCCCOC(=O)N[C@@H](CNC(=O)c1cc(OCc2ccc(C(=N)N)cc2)no1)C(=O)O [Example 123, N^2-n-butyloxycarbonyl-N^3-[3-(4-amidinobenzyloxy)-5-isoxazolecarbonyl]-L-2,3-diaminopropionate TFA salt] | < 10
19 | CCCCOC(=O)N[C@@H](CNC(=O)c1cc(OCc2ccc(C(=N)N)cc2)no1)C(=O)OC [Example 142, Methyl N^2-n-butyloxycarbonyl-N^3-[3-(4-amidinobenzyloxy)-5 isoxazolecarbonyl]-L-2,3-diaminopropionate TFA salt] | < 10
20 | CCCCOC(=O)N[C@@H](CNC(=O)c1cc(OCC2CCN(C(=N)N)CC2)no1)C(=O)OC [Example 479, Methyl N^2-n-butyloxycarbonyl-N-[3-(N-amidino-4-piperidinylmethoxy)-5-isoxazolecarbonyl]-L-2,3-diaminopropionate TFA salt] | < 10
21 | O=C(O)CC1CCCCN1C(=O)c1ccc(OCCCC2CCNCC2)cc1 (stereo not shown) [Example 480] | 10 to 50
22 | O=C(O)CC1CCCCCN1C(=O)c1ccc(OCCCC2CCNCC2)cc1 (stereo not shown) [Example 481] | 10 to 50
23 | O=C(O)CC1CCCCN1C(=O)c1ccc(OCCC2CCNCC2)cc1 (stereo not shown) [Example 482] | 51 to 100
24 | COC(=O)[C@H](CNC(=O)c1cccc(COc2ccc(C(=N)N)cc2)c1)NC(=O)Cc1ccccn1 [Example 500a] | < 10
25 | COC(=O)[C@H](CNC(=O)c1cccc(COc2ccc(C(=N)N)cc2)c1)NC(=O)Cc1ccncc1 [Example 501a] | < 10
